The melting point is the temperature of the solid-liquid transition.

Each structure is given as a SMILES string.

Series [1] deals with Male Sprague Dawley rats, gastric hemorrhagic lesion. Description: rat gastric lesion test. The note with it: rat fasted 24 hours, oral gavage, lesion score (summed length, mm) three hours after dosing; ratio relative to parent NSAID (Naproxen = 1).
Protocol: Male Sprague Dawley rats (Charles River Laboratories, Wilmington, Mass.) weighing 230-250 g were used for the experiments. The rats were housed with laboratory chow and water ad libitum prior to the study. The rats were fasted for 24 hours with free access to water and then dosed by oral gavage with vehicle or with test compounds given at a volume of 0.5 mL/100 g. […] Rats were euthanized by CO2 three hours after dosing. The stomachs were dissected along the greater curvature, washed with a directed stream of 0.9% saline and pinned open on a sylgard based petri dish for examination of the hemorrhagic lesion. Gastric lesion score was expressed in mm and calculated by summing the length of each lesion.
Series [2] concerns Male Sprague-Dawley rats, carrageenan paw edema. Description: rat paw edema test (carrageenan), antiinflammatory activity. It is filed as in vivo. Particulars: oral gavage one hour prior to subplantar carrageenan, paw volume three hours later, expressed as ratio (Vehicle = 1). The method, then: The rat paw edema test was used to measure the antiinflammatory activity. The rat paw edema test was performed according to the method of Winter et al, Proc. Soc. […] Male Sprague-Dawley rats (250-275 g) were fasted overnight and dosed by oral gavage with vehicle or suspensions of compound one hour prior to the subplantar injection of 50 μl of 1% suspension of carrageenan. Three hours later, the paw volume was measured and compared with the initial volume measured immediately after carrageenan injection.

On to `COc1ccc2cc([C@H](C)C(=O)OCCSCCO[N+](=O)[O-])ccc2c1` [Example 1, 2-(2-(Nitrooxy)ethylthio)ethyl (2S)-2-(6-methoxy(2-naphthyl))propanoate], for which the melting point was in the range of 33 to 37 °C. For the same compound, in series [1], the “Relative Activity Gastric Lesion” value is given as 0.32.
For the compound `COc1ccc2cc([C@H](C)C(=O)OCCS(=O)(=O)CCO[N+](=O)[O-])ccc2c1` [Example 2, 2-((2-(Nitrooxy)ethyl)sulfonyl)ethyl (2S)-2-(6-methoxy(2-naphthyl)) propanoate], in series [1], the “Relative Activity Gastric Lesion” value amounted to 0.11. The “Relative Activity Antiinflammation” value in series [2] is given as 0.49.
As to `COc1ccc2cc([C@H](C)C(=O)OCC3(CO[N+](=O)[O-])COCOC3)ccc2c1` [Example 9], the “Relative Activity Gastric Lesion” value in series [1] was determined as 0.02. Further, in series [2], the “Relative Activity Antiinflammation” value is on record as 0.69.
As to `COc1ccc2cc([C@H](C)C(=O)OCC(=O)COC(=O)c3ccc(CO[N+](=O)[O-])cc3)ccc2c1` [Example 11, 3-(4-((Nitrooxy)methyl)phenylcarbonyloxy)-2-oxopropyl (2S)-2-(6-methoxy(2-naphthyl))propanoate], the melting point lay within 105 to 107 °C.
Consider `COc1ccc2cc([C@H](C)C(=O)OCC(C)(CO[N+](=O)[O-])[N+](=O)[O-])ccc2c1` (stereo partly drawn) [Example 12, 2-Methyl-2-nitro-3-(nitrooxy)propyl(2S)-2-(6-methoxy(2-naphthyl)) propanoate], for which the “Relative Activity Gastric Lesion” value in series [1] worked out at 0.18. Further, in series [2], the “Relative Activity Antiinflammation” value was 0.47.
For `COc1ccc2cc([C@H](C)C(=O)OCC(CO[N+](=O)[O-])(CO[N+](=O)[O-])[N+](=O)[O-])ccc2c1` [Example 13, 2-Nitro-3-(nitrooxy)-2-((nitrooxy)methyl)propyl (2S)-2-(6-methoxy(2-naphthyl))propanoate], the melting point is 69 to 71 °C. Besides, the “Relative Activity Gastric Lesion” value in series [1] was determined as 0.55.
With `COc1ccc2cc([C@H](C)C(=O)OCCOC(=O)NCCO[N+](=O)[O-])ccc2c1` [Example 14, 2-(N-(2-(Nitrooxy)ethyl)carbamoyloxy)ethyl (2S)-2-(6-methoxy(2-naphthyl))propanoate], the melting point is 56 to 57 °C. Further, the “Relative Activity Gastric Lesion” value in series [1] is given as 0.15.
The compound `COc1ccc2cc([C@H](C)C(=O)OCC(=O)N(C)CCO[N+](=O)[O-])ccc2c1` [Example 17, (N-Methyl-N-(2-(nitrooxy)ethyl)carbamoyl)methyl (2S)-2-(6-methoxy(2-naphthyl))propanoate] gave a melting point of 80 to 81 °C.
As for `CCN(CCO[N+](=O)[O-])C(=O)COC(=O)[C@@H](C)c1ccc2cc(OC)ccc2c1` [Example 18, (N-Ethyl-N-(2-(nitrooxy)ethyl)carbamoyl)methyl (2S)-2-(6-methoxy(2-naphthyl))propanoate], the melting point fell in the range of 60 to 61 °C. In addition, the “Relative Activity Gastric Lesion” value in series [1] is listed as 0.25.
`COc1ccc2cc([C@H](C)C(=O)OCC(=O)N(C)CC(=O)OCCO[N+](=O)[O-])ccc2c1` [Example 20, (N-Methyl-N-(((2-(nitrooxy)ethyl)oxycarbonyl)methyl)carbamoyl)methyl (2S)-2-(6-methoxy(2-naphthyl))propanoate] returned a melting point of 71 to 73 °C. Besides, the “Relative Activity Gastric Lesion” value in series [1] is reported as 0.03.
The matching figures for `COc1ccc2cc([C@H](C)C(=O)OCC(=O)N(C)CC(=O)OCCCO[N+](=O)[O-])ccc2c1` [Example 21, (N-Methyl-N-(((3-(nitrooxy)propyl)oxycarbonyl)methyl)carbamoyl)methyl (2S)-2-(6-methoxy(2-naphthyl))propanoate]: 41 to 43 °C and 0.19.
Regarding `COc1ccc2cc([C@H](C)C(=O)OCC(=O)N(C)CC(=O)NCCO[N+](=O)[O-])ccc2c1` [Example 22, (N-Methyl-N-((N-(2-(nitrooxy)ethyl)carbamoyl)methyl)carbamoyl)methyl (2S)-2-(6-methoxy(2-naphthyl))propanoate], the melting point was in the range of 79 to 81 °C.
Same read-out and setting: in the case of `COc1ccc2cc(C(C)C(=O)OCC(=O)OCCO[N+](=O)[O-])ccc2c1` (stereo not shown) [Example 23, ((2-(Nitrooxy)ethyl)oxycarbonyl)methyl 2-(6-methoxy-2-naphthyl)propanoate] it was 44 to 45 °C; in that of `COc1ccc2cc(C(C)C(=O)OCC(=O)NCCCO[N+](=O)[O-])ccc2c1` (stereo not shown) [Example 24, (N-(3-(Nitrooxy)propyl)carbamoyl)methyl 2-(6-methoxy-2-naphthyl)propanoate], 51 to 53 °C.
As to `COc1ccc2cc([C@H](C)C(=O)OCC(=O)O[C@@H]3CO[C@H]4[C@H]3OC[C@H]4O[N+](=O)[O-])ccc2c1` [Example 26, (1S,5S,2R,6R)-6-(Nitrooxy)-4,8-dioxabicyclo(3.3.0)oct-2-yl)oxycarbonyl) methyl (2S)-2-(6-methoxy (2-naphthyl)) propanoate], the “Relative Activity Gastric Lesion” value in series [1] came to 0.07. For the same compound, the “Relative Activity Antiinflammation” value in series [2] is on record as 0.75.
As to `COc1ccc2cc([C@H](C)C(=O)OC[C@@H](CO[N+](=O)[O-])O[N+](=O)[O-])ccc2c1` [Example 27c, (2S)-2,3-Bis(nitrooxy)propyl (2S)-2-(6-methoxy(2-naphthyl))propanoate], the “Relative Activity Gastric Lesion” value in series [1] came to 0.20.
`COc1ccc2cc([C@H](C)C(=O)OC[C@@H](O)CO[N+](=O)[O-])ccc2c1` [Example 28, (2R)-2-hydroxy-3-(nitrooxy)propyl (2S)-2-(6-methoxy(2-naphthyl)) propanoate]: in series [2], the “Relative Activity Antiinflammation” value was determined as 0.57.
`COc1ccc2cc([C@H](C)C(=O)OCC(=O)COC(=O)Cc3ccc(CO[N+](=O)[O-])cc3)ccc2c1` [Example 30, 3-(2-(4-((Nitrooxy)methyl)phenyl)acetyloxy)-2-oxopropyl (2S)-2-(6-methoxy(2-naphthyl))propanoate] showed a melting point of 92 to 95 °C.
Take `COc1ccc2cc([C@H](C)C(=O)Oc3ccc(C(=O)OCCO[N+](=O)[O-])cc3)ccc2c1` [Example 32, 4-((2-(Nitrooxy)ethyl)oxycarbonyl)phenyl (2S)-2-(6-methoxy(2-naphthyl))propanoate]: in series [1], the “Relative Activity Gastric Lesion” value was determined as 0.06.
`COc1ccc2cc([C@H](C)C(=O)OCC(=O)N(C)CCCO[N+](=O)[O-])ccc2c1` [Example 34, (N-methyl-N-(3-(nitrooxy)propyl)carbamoyl)methyl (2S)-2-(6-methoxy(2-naphthyl))propanoate] registered a melting point of 104 to 105 °C. Besides, in series [1], the “Relative Activity Gastric Lesion” value worked out at 0.02.
`COc1ccc2cc([C@H](C)C(=O)NOCC(=O)N3CCC(CO[N+](=O)[O-])CC3)ccc2c1` [Example 35, (2S)-2-(6-Methoxy(2-naphthyl))-N-(2-(4-((nitrooxy)methyl)piperidyl)-2-oxoethoxy)propanamide]: in series [2], the “Relative Activity Antiinflammation” value is 0.06.
For `COc1ccc2cc([C@H](C)C(=O)OCCOc3ccc(OCCO[N+](=O)[O-])cc3)ccc2c1` [Example 39, 2-(4-(2-(Nitrooxy)ethoxy)phenoxy)ethyl (2S)-2-(6-methoxy(2-naphthyl))propanoate], the melting point was 67 to 69 °C. Besides, the “Relative Activity Gastric Lesion” value in series [1] came out at 0.04.
For `COc1ccc2cc([C@H](C)C(=O)OCCOC(=O)C(=O)OCCCO[N+](=O)[O-])ccc2c1` [Example 40, 2-((2S)-2-(6-Methoxy(2-naphthyl))propanoyloxy)ethyl 3-(nitrooxy)-propyl ethane-1,2-dioate], the melting point was 55 to 58 °C.
Regarding `COc1ccc2cc([C@H](C)C(=O)NNC(=O)CCCO[N+](=O)[O-])ccc2c1` [Example 41, N-((2S)-2-(6-Methoxy(2-naphthyl))propanoylamino)-4 (nitrooxy)butanamide], the melting point lay within 117 to 119 °C.
In the case of `COc1ccc2cc([C@H](C)C(=O)OCCN(C)C(=O)c3ccc(CO[N+](=O)[O-])cc3)ccc2c1` [Example 45, 2-(N-Methyl(4-((nitrooxy)methyl)phenyl)carbonylamino)ethyl (2S)-2-(6-methoxy(2-naphthyl))propanoate], the melting point lay within 108 to 115 °C.
`COc1ccc2c(c1)c(CC(=O)O[C@H]1CO[C@H]3[C@H]1OC[C@H]3O[N+](=O)[O-])c(C)n2C(=O)c1ccc(Cl)cc1` [Example 46, (1S,2S,5S,6R)-6-(Nitrooxy)-4,8-dioxabicyclo(3.3.0)oct-2-yl 2-(1-((4 chlorophenyl)carbonyl)-5-methoxy-2-methylindol-3-yl)acetate] gave a melting point of 159 to 160 °C.
On to `COc1ccc2cc([C@H](C)C(=O)OCCN(CCO[N+](=O)[O-])S(=O)(=O)c3ccc(C)cc3)ccc2c1` [Example 48, 2-(((4-Methylphenyl)sulfonyl)(2-(nitrooxy)ethyl)amino)ethyl (2S)-2-(6-methoxy(2-naphthyl))propanoate], for which the melting point is 92 to 95 °C.
As for `COc1ccc2cc([C@H](C)C(=O)SCCCCO[N+](=O)[O-])ccc2c1` [Example 54, (2S)-2-(6-methoxy(2-naphthyl))-1-(4-(nitrooxy)butylthio)propan-1-one], the melting point was 30 to 35 °C.
`COc1ccc2c(c1)c(CC(=O)OCC(=O)NCCO[N+](=O)[O-])c(C)n2C(=O)c1ccc(Cl)cc1` [Example 56, (N-(2-(Nitrooxy)ethyl)carbamoyl)methyl 2-(1-((4-chlorophenyl)carbonyl)-5-methoxy-2-methylindol-3-yl)acetate] had a melting point of 128 to 129 °C.
Still for that read-out and setting: in the case of `O=C(COC(=O)Cc1ccccc1Nc1c(Cl)cccc1Cl)NCCO[N+](=O)[O-]` [Example 57, (N-(2-(Nitrooxy)ethyl)carbamoyl)methyl 2-(2-((2,6-dichlorophenyl)amino)phenyl)acetate] it was 81 to 83 °C.
Turning to `COc1ccc2cc([C@H](C)C(=O)O)ccc2c1` [Naproxen, (2S)-2-(6-methoxy(2-naphthyl))propanoic acid, reference compound], the “Relative Activity Gastric Lesion” value in series [1] is 1.

The record behind these values is patent publication US7754772B2, “Nitrosated nonsteroidal antiinflammatory compounds, compositions and methods of use” (NicOx, S.A., priority 2002, dated 2010).
